Source: PubChem BioAssay (NCI)
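In this assay, cells in 96-well plates receive the compound at five concentrations for 48 hours. Endpoints are linearly interpolated between the surrounding concentrations. Abbreviation: GI50, concentration required for 50% inhibition of growth. The concentration for full growth arrest is given as TGI.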

Columns and labels:
Assay in all cases: NCI-60 cell line screen, 48 h
HOP-92 NSCLC = tested on: HOP-92 NSCLC
NCI-H522 lung = tested on: NCI-H522 lung
MDA-MB-435 = tested on: MDA-MB-435
SNB-75 CNS = tested on: SNB-75 CNS
MOLT-4 leukemia = tested on: MOLT-4 leukemia
NCI-H226 lung = tested on: NCI-H226 lung
RPMI-8226 leukemia = tested on: RPMI-8226 leukemia
HCC-2998 colon = tested on: HCC-2998 colon
HL-60(TB) leukemia = tested on: HL-60(TB) leukemia
U251 CNS = tested on: U251 CNS
SN12C renal = tested on: SN12C renal
DU-145 prostate = tested on: DU-145 prostate
HS 578T breast = tested on: HS 578T breast
SR leukemia = tested on: SR leukemia
HT29 colon = tested on: HT29 colon
SK-MEL-5 melanoma = tested on: SK-MEL-5 melanoma
SF-539 CNS = tested on: SF-539 CNS
A498 renal = tested on: A498 renal
HOP-62 NSCLC = tested on: HOP-62 NSCLC
KM12 colon = tested on: KM12 colon
RXF 393 renal = tested on: RXF 393 renal
EKVX NSCLC = tested on: EKVX NSCLC
SF-295 CNS = tested on: SF-295 CNS
NCI-H460 lung = tested on: NCI-H460 lung
NCI-H23 lung = tested on: NCI-H23 lung
HCT-15 colon = tested on: HCT-15 colon
SW-620 colon = tested on: SW-620 colon
BT-549 breast = tested on: BT-549 breast
TK-10 renal = tested on: TK-10 renal
SK-MEL-2 melanoma = tested on: SK-MEL-2 melanoma
OVCAR-8 ovarian = tested on: OVCAR-8 ovarian
A549 NSCLC = tested on: A549 NSCLC
SK-OV-3 ovarian = tested on: SK-OV-3 ovarian
CCRF-CEM leukemia = tested on: CCRF-CEM leukemia
PC-3 prostate = tested on: PC-3 prostate
UACC-62 melanoma = tested on: UACC-62 melanoma
OVCAR-4 ovarian = tested on: OVCAR-4 ovarian
MDA-MB-468 breast = tested on: MDA-MB-468 breast
LOX IMVI melanoma = tested on: LOX IMVI melanoma
SNB-19 CNS = tested on: SNB-19 CNS
M14 melanoma = tested on: M14 melanoma
IGROV1 ovarian = tested on: IGROV1 ovarian
UACC-257 melanoma = tested on: UACC-257 melanoma
UO-31 renal = tested on: UO-31 renal
OVCAR-5 ovarian = tested on: OVCAR-5 ovarian
MDA-MB-231 breast = tested on: MDA-MB-231 breast
CAKI-1 renal = tested on: CAKI-1 renal
OVCAR-3 ovarian = tested on: OVCAR-3 ovarian
K-562 leukemia = tested on: K-562 leukemia
SF-268 CNS = tested on: SF-268 CNS
MALME-3M melanoma = tested on: MALME-3M melanoma
COLO 205 colon = tested on: COLO 205 colon
T-47D breast = tested on: T-47D breast
ACHN renal = tested on: ACHN renal
786-0 renal = tested on: 786-0 renal
HCT-116 colon = tested on: HCT-116 colon
MCF7 breast = tested on: MCF7 breast
SK-MEL-28 melanoma = tested on: SK-MEL-28 melanoma

C[C@H](Nc1nc(NCCc2ccccc2)nc2ccccc12)c1ccccc1
GI50 (HOP-92 NSCLC): 1080 nM | TGI (HOP-92 NSCLC): 2470 nM | GI50 (NCI-H522 lung): 1500 nM | TGI (NCI-H522 lung): 3090 nM | GI50 (MDA-MB-435): 1370 nM | TGI (MDA-MB-435): 2730 nM | GI50 (SNB-75 CNS): 563 nM | TGI (SNB-75 CNS): 3490 nM | GI50 (MOLT-4 leukemia): 1500 nM | TGI (MOLT-4 leukemia): 3640 nM | GI50 (NCI-H226 lung): 1450 nM | TGI (NCI-H226 lung): 3040 nM | GI50 (RPMI-8226 leukemia): 1400 nM | TGI (RPMI-8226 leukemia): 4170 nM | GI50 (HCC-2998 colon): 1400 nM | TGI (HCC-2998 colon): 2700 nM | GI50 (HL-60(TB) leukemia): 1400 nM | TGI (HL-60(TB) leukemia): 3980 nM | GI50 (U251 CNS): 1440 nM | TGI (U251 CNS): 2830 nM | GI50 (SN12C renal): 1760 nM | TGI (SN12C renal): 4130 nM | GI50 (DU-145 prostate): 2480 nM | TGI (DU-145 prostate): 6950 nM | GI50 (HS 578T breast): 1450 nM | TGI (HS 578T breast): 3460 nM | GI50 (SR leukemia): 1460 nM | TGI (SR leukemia): 3510 nM | GI50 (HT29 colon): 1260 nM | TGI (HT29 colon): 2960 nM | GI50 (SK-MEL-5 melanoma): 1370 nM | TGI (SK-MEL-5 melanoma): 2660 nM | GI50 (SF-539 CNS): 1700 nM | TGI (SF-539 CNS): 3130 nM | GI50 (A498 renal): 1450 nM | TGI (A498 renal): 3370 nM | GI50 (HOP-62 NSCLC): 1520 nM | TGI (HOP-62 NSCLC): 2930 nM | GI50 (KM12 colon): 1780 nM | TGI (KM12 colon): 3730 nM | GI50 (RXF 393 renal): 1070 nM | TGI (RXF 393 renal): 2310 nM | GI50 (EKVX NSCLC): 1420 nM | TGI (EKVX NSCLC): 3210 nM | GI50 (SF-295 CNS): 1460 nM | TGI (SF-295 CNS): 2790 nM | GI50 (NCI-H460 lung): 1350 nM | TGI (NCI-H460 lung): 2830 nM | GI50 (NCI-H23 lung): 1440 nM | TGI (NCI-H23 lung): 2900 nM | GI50 (HCT-15 colon): 1420 nM | TGI (HCT-15 colon): 2900 nM | GI50 (SW-620 colon): 1400 nM | TGI (SW-620 colon): 2880 nM | GI50 (BT-549 breast): 1330 nM | TGI (BT-549 breast): 2640 nM | GI50 (TK-10 renal): 1930 nM | TGI (TK-10 renal): 5440 nM | GI50 (SK-MEL-2 melanoma): 1370 nM | TGI (SK-MEL-2 melanoma): 2710 nM | GI50 (OVCAR-8 ovarian): 1400 nM | TGI (OVCAR-8 ovarian): 2820 nM | GI50 (A549 NSCLC): 1760 nM | TGI (A549 NSCLC): 6180 nM | GI50 (SK-OV-3 ovarian): 1560 nM | TGI (SK-OV-3 ovarian): 3000 nM | GI50 (CCRF-CEM leukemia): 1950 nM | TGI (CCRF-CEM leukemia): 7660 nM | GI50 (PC-3 prostate): 1370 nM | TGI (PC-3 prostate): 3270 nM | GI50 (UACC-62 melanoma): 1530 nM | TGI (UACC-62 melanoma): 2900 nM | GI50 (OVCAR-4 ovarian): 1680 nM | TGI (OVCAR-4 ovarian): 5900 nM | GI50 (MDA-MB-468 breast): 1130 nM | TGI (MDA-MB-468 breast): 2450 nM | GI50 (LOX IMVI melanoma): 1590 nM | TGI (LOX IMVI melanoma): 3010 nM | GI50 (SNB-19 CNS): 2020 nM | TGI (SNB-19 CNS): 5560 nM | GI50 (M14 melanoma): 1530 nM | TGI (M14 melanoma): 2920 nM | GI50 (IGROV1 ovarian): 1550 nM | TGI (IGROV1 ovarian): 3260 nM | GI50 (UACC-257 melanoma): 1520 nM | TGI (UACC-257 melanoma): 3040 nM | GI50 (UO-31 renal): 1220 nM | TGI (UO-31 renal): 2530 nM | GI50 (OVCAR-5 ovarian): 1630 nM | TGI (OVCAR-5 ovarian): 3420 nM | GI50 (MDA-MB-231 breast): 1680 nM | TGI (MDA-MB-231 breast): 3100 nM | GI50 (CAKI-1 renal): 1360 nM | TGI (CAKI-1 renal): 2730 nM | GI50 (OVCAR-3 ovarian): 1340 nM | TGI (OVCAR-3 ovarian): 2980 nM | GI50 (K-562 leukemia): 1040 nM | TGI (K-562 leukemia): 3620 nM | GI50 (SF-268 CNS): 2070 nM | TGI (SF-268 CNS): 6310 nM | GI50 (MALME-3M melanoma): 1400 nM | TGI (MALME-3M melanoma): 2780 nM | GI50 (COLO 205 colon): 1150 nM | TGI (COLO 205 colon): 2430 nM | GI50 (T-47D breast): 1420 nM | TGI (T-47D breast): 3660 nM | GI50 (ACHN renal): 1720 nM | TGI (ACHN renal): 3810 nM | GI50 (786-0 renal): 1480 nM | TGI (786-0 renal): 2840 nM | GI50 (HCT-116 colon): 1260 nM | TGI (HCT-116 colon): 2510 nM | GI50 (MCF7 breast): 1470 nM | TGI (MCF7 breast): 2990 nM | GI50 (SK-MEL-28 melanoma): 1470 nM | TGI (SK-MEL-28 melanoma): 2800 nM
